Assay [1] has as its target Beta-1 adrenergic receptor (Homo sapiens, UniProt P08588). It is filed as functional, cell-based.
The target in assay [2] is Sodium channel protein type 5 subunit alpha (Homo sapiens, UniProt Q14524). It counts as functional, cell-based.
The target of assay [3] is T1, Alpha-1A adrenergic receptor (Homo sapiens, UniProt P35348).
T1 sequence (P35348 whole entry): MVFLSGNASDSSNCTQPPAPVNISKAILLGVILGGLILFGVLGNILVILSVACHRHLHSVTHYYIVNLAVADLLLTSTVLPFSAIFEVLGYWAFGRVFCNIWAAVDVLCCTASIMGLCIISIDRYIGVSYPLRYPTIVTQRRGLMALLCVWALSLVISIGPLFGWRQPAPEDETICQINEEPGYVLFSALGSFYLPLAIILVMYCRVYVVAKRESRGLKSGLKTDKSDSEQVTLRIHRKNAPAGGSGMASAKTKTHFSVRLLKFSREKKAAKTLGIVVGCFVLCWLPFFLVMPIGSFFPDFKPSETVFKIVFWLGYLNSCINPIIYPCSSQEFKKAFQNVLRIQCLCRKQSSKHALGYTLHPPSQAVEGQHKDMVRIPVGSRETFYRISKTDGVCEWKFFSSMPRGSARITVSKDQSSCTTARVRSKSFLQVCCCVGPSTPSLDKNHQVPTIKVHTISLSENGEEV

For assay [4], the target named is T2, Amine oxidase [flavin-containing] A (Homo sapiens, UniProt P21397).
T2 sequence (P21397 whole entry): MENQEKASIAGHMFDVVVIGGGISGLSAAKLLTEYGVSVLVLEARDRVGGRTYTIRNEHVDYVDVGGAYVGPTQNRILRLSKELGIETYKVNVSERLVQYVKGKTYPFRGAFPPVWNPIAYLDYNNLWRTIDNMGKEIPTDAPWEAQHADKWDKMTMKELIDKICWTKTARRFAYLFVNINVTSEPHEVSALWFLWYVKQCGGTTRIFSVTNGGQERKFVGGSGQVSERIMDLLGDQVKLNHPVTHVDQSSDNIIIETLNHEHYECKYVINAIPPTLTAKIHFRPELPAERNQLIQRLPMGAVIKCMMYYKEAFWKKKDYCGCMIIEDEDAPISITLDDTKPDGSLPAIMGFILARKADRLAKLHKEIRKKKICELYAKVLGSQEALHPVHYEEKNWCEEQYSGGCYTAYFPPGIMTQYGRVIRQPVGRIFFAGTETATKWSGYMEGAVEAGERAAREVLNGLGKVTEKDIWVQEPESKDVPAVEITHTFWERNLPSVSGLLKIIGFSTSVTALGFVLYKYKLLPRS
It is filed as functional.

For assay [5], the target named is T3, Neuropeptide Y receptor type 2 (Homo sapiens, UniProt P49146).
T3 sequence (P49146 whole entry): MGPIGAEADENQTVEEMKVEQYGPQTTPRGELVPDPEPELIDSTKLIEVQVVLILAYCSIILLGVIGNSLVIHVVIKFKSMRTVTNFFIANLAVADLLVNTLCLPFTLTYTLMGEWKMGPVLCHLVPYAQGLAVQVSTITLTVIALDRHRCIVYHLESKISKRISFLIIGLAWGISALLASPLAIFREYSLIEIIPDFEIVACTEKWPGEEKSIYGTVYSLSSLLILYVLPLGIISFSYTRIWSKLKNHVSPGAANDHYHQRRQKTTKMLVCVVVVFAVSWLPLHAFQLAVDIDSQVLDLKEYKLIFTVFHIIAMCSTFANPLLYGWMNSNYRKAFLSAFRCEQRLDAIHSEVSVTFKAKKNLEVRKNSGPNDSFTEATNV

Assay [6] deals with Gamma-aminobutyric acid type B receptor subunit 1 (Homo sapiens, UniProt Q9UBS5).
In assay [7] the target is 5-hydroxytryptamine receptor 2B (Homo sapiens, UniProt P41595).
Assay [8] has as its target T4, Muscarinic acetylcholine receptor M5 (Homo sapiens, UniProt P08912).
T4 sequence (P08912 whole entry): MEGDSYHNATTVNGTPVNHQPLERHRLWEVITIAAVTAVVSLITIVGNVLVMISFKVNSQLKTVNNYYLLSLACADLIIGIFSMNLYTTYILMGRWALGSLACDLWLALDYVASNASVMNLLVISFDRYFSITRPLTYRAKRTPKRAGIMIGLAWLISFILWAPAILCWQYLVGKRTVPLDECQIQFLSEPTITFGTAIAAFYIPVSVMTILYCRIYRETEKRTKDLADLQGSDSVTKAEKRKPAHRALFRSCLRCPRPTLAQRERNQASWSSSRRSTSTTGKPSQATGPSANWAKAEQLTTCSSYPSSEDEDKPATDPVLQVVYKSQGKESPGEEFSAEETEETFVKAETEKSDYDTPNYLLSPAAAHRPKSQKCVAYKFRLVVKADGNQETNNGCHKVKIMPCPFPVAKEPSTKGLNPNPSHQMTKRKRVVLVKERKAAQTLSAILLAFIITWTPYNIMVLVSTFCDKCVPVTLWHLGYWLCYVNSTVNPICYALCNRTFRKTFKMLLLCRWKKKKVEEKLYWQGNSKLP

For assay [9], the target named is 5-hydroxytryptamine receptor 5A (Homo sapiens, UniProt P47898).

For 26 molecules, AC50 results are on record in ChEMBL document CHEMBL5291721, “A preclinical secondary pharmacology resource illuminates target-adverse drug reaction associations of marketed drugs” (Nat Commun, 2023).

The term AC50 denotes the concentration giving half of the maximal activity seen.
Note: assay procedure not described here.

Sodium channel protein type 5 subunit alpha, sequence (Q14524 whole entry): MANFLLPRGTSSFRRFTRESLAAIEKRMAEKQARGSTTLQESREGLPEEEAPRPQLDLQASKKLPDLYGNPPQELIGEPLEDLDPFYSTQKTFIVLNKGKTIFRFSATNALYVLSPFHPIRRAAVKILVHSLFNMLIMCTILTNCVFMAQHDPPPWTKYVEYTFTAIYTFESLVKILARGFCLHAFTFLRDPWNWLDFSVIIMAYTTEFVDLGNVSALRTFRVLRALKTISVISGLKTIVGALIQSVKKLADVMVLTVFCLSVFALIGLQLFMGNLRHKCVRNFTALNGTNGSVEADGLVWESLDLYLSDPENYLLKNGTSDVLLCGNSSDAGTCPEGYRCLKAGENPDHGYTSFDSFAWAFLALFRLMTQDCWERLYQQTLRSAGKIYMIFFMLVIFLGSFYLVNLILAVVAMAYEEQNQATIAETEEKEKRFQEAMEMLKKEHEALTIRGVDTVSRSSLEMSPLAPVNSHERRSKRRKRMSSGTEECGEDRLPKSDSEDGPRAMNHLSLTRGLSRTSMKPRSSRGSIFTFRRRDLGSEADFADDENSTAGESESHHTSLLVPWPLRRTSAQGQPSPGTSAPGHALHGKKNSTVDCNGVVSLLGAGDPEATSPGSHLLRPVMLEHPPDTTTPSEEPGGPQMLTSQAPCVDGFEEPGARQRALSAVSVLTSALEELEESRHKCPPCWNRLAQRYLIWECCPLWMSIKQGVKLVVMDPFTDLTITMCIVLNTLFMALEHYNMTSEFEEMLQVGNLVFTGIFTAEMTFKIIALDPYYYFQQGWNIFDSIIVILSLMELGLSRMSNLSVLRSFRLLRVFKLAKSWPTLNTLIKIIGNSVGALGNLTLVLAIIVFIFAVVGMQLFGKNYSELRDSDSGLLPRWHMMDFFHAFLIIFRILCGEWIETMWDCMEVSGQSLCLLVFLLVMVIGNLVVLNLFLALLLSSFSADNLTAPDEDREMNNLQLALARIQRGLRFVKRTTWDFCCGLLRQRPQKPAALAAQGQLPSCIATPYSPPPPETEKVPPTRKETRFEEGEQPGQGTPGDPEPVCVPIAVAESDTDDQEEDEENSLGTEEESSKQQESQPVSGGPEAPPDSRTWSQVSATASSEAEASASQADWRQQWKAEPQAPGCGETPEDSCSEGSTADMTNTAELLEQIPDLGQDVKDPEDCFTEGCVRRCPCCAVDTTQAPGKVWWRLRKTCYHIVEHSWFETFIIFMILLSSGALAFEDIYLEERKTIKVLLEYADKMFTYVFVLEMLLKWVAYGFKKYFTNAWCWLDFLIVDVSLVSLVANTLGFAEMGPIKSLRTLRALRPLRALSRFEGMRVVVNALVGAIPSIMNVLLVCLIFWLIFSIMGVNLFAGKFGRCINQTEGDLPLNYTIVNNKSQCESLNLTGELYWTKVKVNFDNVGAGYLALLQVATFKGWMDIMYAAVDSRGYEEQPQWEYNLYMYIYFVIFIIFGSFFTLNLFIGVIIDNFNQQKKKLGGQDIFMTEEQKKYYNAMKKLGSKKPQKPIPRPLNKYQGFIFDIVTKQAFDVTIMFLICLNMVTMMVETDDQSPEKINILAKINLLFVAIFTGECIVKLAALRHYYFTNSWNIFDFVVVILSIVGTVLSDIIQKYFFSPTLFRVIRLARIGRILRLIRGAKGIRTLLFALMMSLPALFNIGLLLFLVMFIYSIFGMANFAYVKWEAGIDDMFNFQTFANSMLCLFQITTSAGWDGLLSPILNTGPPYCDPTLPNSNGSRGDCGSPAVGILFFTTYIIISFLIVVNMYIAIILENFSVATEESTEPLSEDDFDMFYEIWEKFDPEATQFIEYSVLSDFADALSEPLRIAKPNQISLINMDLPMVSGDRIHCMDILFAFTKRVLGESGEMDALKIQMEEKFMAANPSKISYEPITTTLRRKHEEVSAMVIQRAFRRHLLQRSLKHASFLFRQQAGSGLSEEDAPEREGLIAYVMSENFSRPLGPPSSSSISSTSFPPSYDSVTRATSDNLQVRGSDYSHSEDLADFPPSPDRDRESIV
Beta-1 adrenergic receptor, sequence (P08588 whole entry): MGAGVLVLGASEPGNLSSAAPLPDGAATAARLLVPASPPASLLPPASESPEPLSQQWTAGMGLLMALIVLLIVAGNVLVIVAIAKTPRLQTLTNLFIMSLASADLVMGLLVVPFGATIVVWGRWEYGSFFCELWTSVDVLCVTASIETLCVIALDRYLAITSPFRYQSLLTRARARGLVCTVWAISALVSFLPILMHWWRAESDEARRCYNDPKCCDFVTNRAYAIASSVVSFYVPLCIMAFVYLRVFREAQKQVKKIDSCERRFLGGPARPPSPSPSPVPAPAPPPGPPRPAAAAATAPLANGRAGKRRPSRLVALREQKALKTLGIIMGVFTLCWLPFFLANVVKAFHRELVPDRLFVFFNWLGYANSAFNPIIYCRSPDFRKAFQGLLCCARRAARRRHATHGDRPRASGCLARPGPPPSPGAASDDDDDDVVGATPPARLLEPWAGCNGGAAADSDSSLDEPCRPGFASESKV
Gamma-aminobutyric acid type B receptor subunit 1, sequence (Q9UBS5 whole entry): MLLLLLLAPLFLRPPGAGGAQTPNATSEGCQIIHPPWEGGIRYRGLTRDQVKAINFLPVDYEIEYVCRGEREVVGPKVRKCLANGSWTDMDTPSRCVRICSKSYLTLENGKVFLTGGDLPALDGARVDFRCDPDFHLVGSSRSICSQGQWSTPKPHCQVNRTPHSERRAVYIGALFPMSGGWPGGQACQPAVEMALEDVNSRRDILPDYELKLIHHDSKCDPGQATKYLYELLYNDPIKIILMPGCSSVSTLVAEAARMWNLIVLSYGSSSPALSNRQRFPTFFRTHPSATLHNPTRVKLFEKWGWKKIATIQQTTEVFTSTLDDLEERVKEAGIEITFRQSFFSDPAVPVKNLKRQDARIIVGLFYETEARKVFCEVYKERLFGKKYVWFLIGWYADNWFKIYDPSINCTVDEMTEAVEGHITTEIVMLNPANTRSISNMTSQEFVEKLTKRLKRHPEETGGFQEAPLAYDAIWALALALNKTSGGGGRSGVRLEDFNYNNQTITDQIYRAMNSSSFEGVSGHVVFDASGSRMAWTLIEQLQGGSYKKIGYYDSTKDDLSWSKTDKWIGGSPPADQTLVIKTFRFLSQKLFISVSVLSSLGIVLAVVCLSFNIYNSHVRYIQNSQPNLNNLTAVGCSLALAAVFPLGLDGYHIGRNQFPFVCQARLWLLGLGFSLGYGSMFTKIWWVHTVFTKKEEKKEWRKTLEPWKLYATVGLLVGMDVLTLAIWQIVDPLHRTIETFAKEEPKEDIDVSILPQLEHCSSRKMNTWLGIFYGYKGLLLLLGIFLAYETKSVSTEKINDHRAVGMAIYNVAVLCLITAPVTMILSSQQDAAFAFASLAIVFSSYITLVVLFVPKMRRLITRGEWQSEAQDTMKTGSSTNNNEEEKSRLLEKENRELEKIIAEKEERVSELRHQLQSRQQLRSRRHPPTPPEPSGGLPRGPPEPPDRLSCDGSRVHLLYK
5-hydroxytryptamine receptor 5A, sequence (P47898 whole entry): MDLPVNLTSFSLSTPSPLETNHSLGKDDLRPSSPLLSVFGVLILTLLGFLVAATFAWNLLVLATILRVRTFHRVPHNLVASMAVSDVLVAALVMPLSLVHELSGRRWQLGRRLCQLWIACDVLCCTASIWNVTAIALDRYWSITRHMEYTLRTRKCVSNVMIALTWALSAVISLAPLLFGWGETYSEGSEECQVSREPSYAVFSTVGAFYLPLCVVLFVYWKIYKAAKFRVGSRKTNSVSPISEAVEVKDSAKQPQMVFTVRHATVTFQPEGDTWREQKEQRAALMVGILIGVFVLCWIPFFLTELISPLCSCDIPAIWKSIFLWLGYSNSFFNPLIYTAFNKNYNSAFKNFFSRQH
5-hydroxytryptamine receptor 2B, sequence (P41595 whole entry): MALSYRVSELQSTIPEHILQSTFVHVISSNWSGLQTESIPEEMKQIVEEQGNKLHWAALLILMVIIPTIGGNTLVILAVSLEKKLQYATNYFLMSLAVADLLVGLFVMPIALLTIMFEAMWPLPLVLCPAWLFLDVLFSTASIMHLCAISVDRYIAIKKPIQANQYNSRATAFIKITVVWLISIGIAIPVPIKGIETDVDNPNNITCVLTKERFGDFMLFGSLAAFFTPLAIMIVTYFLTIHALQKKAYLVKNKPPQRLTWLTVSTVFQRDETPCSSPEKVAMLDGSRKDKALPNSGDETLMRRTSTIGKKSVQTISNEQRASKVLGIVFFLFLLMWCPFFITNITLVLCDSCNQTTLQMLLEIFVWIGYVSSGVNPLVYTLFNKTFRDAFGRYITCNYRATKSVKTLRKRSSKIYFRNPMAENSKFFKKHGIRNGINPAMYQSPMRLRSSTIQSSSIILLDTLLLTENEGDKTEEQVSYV

As for `N#Cc1ccccc1-c1cc(-c2ccccn2)cn(-c2ccccc2)c1=O`, the AC50 in assay [1] and in assay [2] was greater than 30 µM throughout.

`N=C(N)NCCCCCCC(=O)NC(O)C(=O)NCCCCNCCCN` (stereo not drawn): in assay [1], the AC50 is greater than 30 µM.

As to `NCCCC(O)(P(=O)(O)O)P(=O)(O)O` [ALENDRONIC ACID], the AC50 in [3] is greater than 10 µM; in [4], greater than 30 µM; in [2], greater than 30 µM; in assay [5] it was greater than 30 µM; in [6] it was greater than 10 µM.

In turn, `O=C(CCCN1CCC(n2c(O)nc3ccccc32)CC1)c1ccc(F)cc1` [BENPERIDOL] registered a concentration at half-maximal activity (AC50) in [1] greater than 30 µM.

On to `CCCC(C)(COC(N)=O)COC(=O)NC(C)C` (stereo not drawn) [CARISOPRODOL], for which the AC50 in assay [3] was greater than 10 µM; in assay [5], greater than 30 µM; in [7], greater than 10 µM.

Turning to `COCCOC(=O)C1=C(C)NC(C)=C(C(=O)OC/C=C/c2ccccc2)C1c1cccc([N+](=O)[O-])c1` (stereo not drawn) [CILNIDIPINE], the AC50 in assay [2] is greater than 50 µM.

Turning to `N[C@H](Cc1cc(I)c(Oc2cc(I)c(O)c(I)c2)c(I)c1)C(=O)O` [DEXTROTHYROXINE], the AC50 in assay [5] was greater than 30 µM; in assay [7], greater than 10 µM.

Turning to `COC(=O)N[C@@H](C)CNc1nccc(-c2cn(C(C)C)nc2-c2cc(Cl)cc(NS(C)(=O)=O)c2F)n1` [ENCORAFENIB], the AC50 in assay [2] is greater than 30 µM.

In turn, `CCCN(CC)C(CC)C(=O)Nc1c(C)cccc1C` (stereo not drawn) [ETIDOCAINE] returned an AC50 in assay [2] of 28 µM.

On to `CC(=O)OCC(CCn1cnc2cnc(N)nc21)COC(C)=O` [FAMCICLOVIR], for which the AC50 in assay [3] is greater than 10 µM; in assay [5] it was greater than 30 µM; in assay [7] it was greater than 10 µM.

`O=C(O)c1ccccc1Nc1cccc(C(F)(F)F)c1` [FLUFENAMIC ACID] showed an AC50 in assay [5] greater than 30 µM.

`C#C[C@]1(O)CC[C@H]2[C@@H]3CCC4=CC(=O)CCC4=C3C=C[C@@]21CC` [GESTRINONE] displayed an AC50 in assay [1] greater than 30 µM.

For `CCCCCCOC(=O)CCC(=O)CN` [HEXAMINOLEVULINATE], the concentration at half-maximal activity (AC50) in assay [1] was greater than 30 µM.

Take `COC1=C(OC)C(=O)C(CCCCCCCCCCO)=C(C)C1=O` [IDEBENONE]: the AC50 in [3] is greater than 10 µM; in [8], greater than 10 µM; in [5], greater than 30 µM; in assay [7], 8.99 µM; in assay [6], greater than 10 µM; in assay [9], greater than 10 µM.

Regarding `CC#CCn1c(N2CCC[C@@H](N)C2)nc2c1c(=O)n(Cc1nc(C)c3ccccc3n1)c(=O)n2C` [LINAGLIPTIN], the AC50 was greater than 150 µM in assay [2] and greater than 10 µM in [7].

Molecule `Cc1ccc(NC(=O)C2(c3ccc4c(c3)OC(F)(F)O4)CC2)nc1-c1cccc(C(=O)O)c1` [LUMACAFTOR] returned an AC50 in assay [2] greater than 50 µM.

In the case of `O=C1CN=C(c2ccccc2)c2cc(Cl)ccc2N1` [NORDAZEPAM], the AC50 is greater than 10 µM in assay [3]; greater than 10 µM in [8]; greater than 30 µM in assay [5]; greater than 10 µM in [7]; greater than 10 µM in assay [6]; greater than 10 µM in [9].

With `CC(CCc1ccccc1)NC(C)C(O)c1ccc(O)cc1` (stereo not drawn) [NYLIDRIN], the AC50 in assay [8] is greater than 10 µM; in [5] it was greater than 30 µM; in assay [7], 0.733 µM; in assay [6], greater than 10 µM; in assay [9], greater than 10 µM.

With `O=C1Nc2ccc(Cl)cc2C(c2ccccc2)=NC1O` (stereo not drawn) [OXAZEPAM], the AC50 was greater than 10 µM in [3]; greater than 10 µM in [8]; greater than 30 µM in [5]; greater than 10 µM in assay [6]; greater than 10 µM in assay [9].

With `Cc1ccc(=O)n(-c2ccccc2)c1` [PIRFENIDONE], in assay [2], the AC50 was greater than 50 µM.

`C[n+]1ccccc1/C=N/O` [PRALIDOXIME] registered a concentration at half-maximal activity (AC50) in assay [4] greater than 30 µM.

In the case of `CC(C)CC(N(C)C)C1(c2ccc(Cl)cc2)CCC1` (stereo not drawn) [SIBUTRAMINE], the AC50 is greater than 10 µM in assay [3], greater than 30 µM in [5] and greater than 10 µM in assay [6].

As for `[H]/N=C(/N)N[C@H]1[C@H](O)[C@@H](O)[C@H](O[C@@H]2O[C@@H](C)[C@](O)(C=O)[C@H]2O[C@@H]2O[C@@H](CO)[C@H](O)[C@@H](O)[C@@H]2NC)[C@@H](N/C(N)=N\[H])[C@@H]1O` [STREPTOMYCIN], the AC50 in assay [3] was greater than 10 µM; in assay [5], greater than 30 µM; in assay [7] it was greater than 10 µM.

`COc1c(O[C@@H]2O[C@H](CO)[C@@H](O)[C@H](O)[C@H]2O)cc2c(c1OC)-c1ccc(SC)c(=O)cc1[C@@H](NC(C)=O)CC2` [THIOCOLCHICOSIDE]: the AC50 in assay [1] was greater than 30 µM.

As for `N#C[C@@H]1CCCN1C(=O)CNC12CC3CC(CC(O)(C3)C1)C2` [VILDAGLIPTIN], the concentration at half-maximal activity (AC50) in assay [3], in assay [8], in assay [7], in [6] and in assay [9] was greater than 10 µM throughout.

COLISTIN gave a concentration at half-maximal activity (AC50) in [4] greater than 30 µM.
